Laboratory results as given in patent publication EP4653445A1, “CDK INHIBITOR AND CRYSTAL FORM OF PHARMACEUTICALLY ACCEPTABLE SALT THEREOF, AND USE THEREOF” (CSPC Zhongqi Pharmaceutical Technology (Shijiazhuang) Co., …, priority 2023, dated 2024).
Several values for one entry are separate records, joined by “and”; a condition that tells them apart may be missing. Equal values may be shown once. Where a name gives a salt, the structure may show the parent alone.

Tests used:
[1] = Stability test, samples placed open for 7 days (HPLC and XRPD); assay type: physicochemical; settings: HPLC
[2] = Dynamic vapor sorption (DVS) test; assay type: physicochemical
Procedure: • Instrument: TA Instruments Q5000 SA • Detection method: 20 to 50 mg of the sample was placed in a tared sample basket and automatically weighed, and DVS testing was performed according to the parameters in Table 7: Step Time: 60 min; Equilibration Time per RH%: 1 hour; Total Gas Flow Rate: 200 sccm; Gradient mode: 0%-90%-0% humidity variation, with a humidity variation amount of 10% for each gradient level between 0% and 90%, and gradient endpoint was determined by dm/dt < 0.01% maintained for 10 minutes.

[3] = Stability test, samples placed open for 7 days (HPLC and XRPD); assay type: physicochemical; settings: for XRPD-7days / Purity (Peak area%) 7 days: open
Text: Subsequently, the samples after 7 days were respectively detected by HPLC and XRPD to determine their chemical and physical stabilities.

MV-4-11 = test: In vitro tumor cell proliferation inhibition test (CTG); assay type: cell-based, Human; settings: 4-7 days
Procedure: (§1) The tumor cell strains were cultured in an incubator at 37 °C with 5% CO2. The cells were subcultured regularly, and those in the logarithmic growth phase were taken for plating. The cells were stained with trypan blue and the viable cells were counted. The cell concentration was adjusted to an appropriate level. The cell suspension was added to each well of the culture plate, and the culture medium without cells was added to the blank control wells. The culture plate was incubated overnight in an incubator at 37 °C, 5% CO2, and 100% RH. […] The compound working solution was added to the cell culture plate, and DMSO at the same final concentration was added to the solvent control wells. Then the plate was returned to the incubator for 4-7 days of culture. The cell viability was detected according to the instructions of the Promega CellTiter-Glo (CTG) Luminescent Cell Viability Assay Kit (Promega-G7573).
(§2) The inhibition rates of the compound at different concentrations were calculated in Excel, then the inhibition curve was plotted using GraphPad Prism software and relevant parameters, including the minimum inhibition rate, maximum inhibition rate, and IC50 were calculated.

Huh-7 = test: as above; assay type: cell-based, Human; settings: 4-7 days
Procedure: as §1, §2

NCI-H211 = test: as above; assay type: cell-based, Human; settings: 4-7 days
Procedure: as §1, §2

MOLM-13 = test: as above; assay type: cell-based, Human; settings: 4-7 days
Procedure: as §1, §2

HCT 116 = test: as above; assay type: cell-based, Human; settings: 4-7 days
Procedure: as §1, §2

A2780 = test: as above; assay type: cell-based, Human; settings: 4-7 days
Procedure: as §1, §2

SK-MEL-5 = test: as above; assay type: cell-based, Human; settings: 4-7 days
Procedure: as §1, §2

COLO 205 = test: as above; assay type: cell-based, Human; settings: 4-7 days
Procedure: as §1, §2

JHH-7 = test: as above; assay type: cell-based, Human; settings: 4-7 days
Procedure: as §1, §2

HT-29 = test: as above; assay type: cell-based, Human; settings: 4-7 days
Procedure: as §1, §2

Hep3B (Rb-) = test: as above; assay type: cell-based, Human; settings: Liver cancer, 4-7 days
Procedure: as §1, §2

MCF-7 = test: as above; assay type: cell-based; settings: 4-7 days; for Maximum Inhibition Rate: HR+/HER2- Breast cancer; for IC50: Homo sapiens, MCF7, HR+/HER2- Breast cancer
Procedure: as §1, with “The” for “The tumor cell strains were cultured in an incubator at 37 °C with 5% CO2. The”, “wells.” for “wells. The culture plate was incubated overnight in an incubator at 37 °C, 5% CO2, and 100% RH.”, “(Promega-G7573). […] The IC50 was calculated using the following equation: [formula] • X: log(concentration) • Y: response value, negatively correlated with X • HillSlope: slope factor • Note: […]” for “(Promega-G7573).”

MDA-MB-453 = test: as above; assay type: cell-based; settings: 4-7 days; for Maximum Inhibition Rate: HR-/HER2+ Breast cancer; for IC50: Homo sapiens, MDA-MB-453, HR-/HER2+ Breast cancer
Procedure: as §1, with “The” for “The tumor cell strains were cultured in an incubator at 37 °C with 5% CO2. The”, “wells.” for “wells. The culture plate was incubated overnight in an incubator at 37 °C, 5% CO2, and 100% RH.”, “(Promega-G7573). […] The IC50 was calculated using the following equation: [formula] • X: log(concentration) • Y: response value, negatively correlated with X • HillSlope: slope factor • Note: […]” for “(Promega-G7573).”

xMCF-7/Palbo-R = test: as above; assay type: cell-based; settings: Breast cancer (acquired resistance to Palbociclib), 4-7 days
Procedure: as §1, with “The” for “The tumor cell strains were cultured in an incubator at 37 °C with 5% CO2. The”, “wells.” for “wells. The culture plate was incubated overnight in an incubator at 37 °C, 5% CO2, and 100% RH.”, “(Promega-G7573). […] The IC50 was calculated using the following equation: [formula] • X: log(concentration) • Y: response value, negatively correlated with X • HillSlope: slope factor • Note: […]” for “(Promega-G7573).”

HCC1187 = test: as above; assay type: cell-based; settings: 4-7 days; for IC50: Homo sapiens, HCC1187, Triple-negative breast cancer; for Maximum Inhibition Rate: Triple-negative breast cancer
Procedure: as §1, with “The” for “The tumor cell strains were cultured in an incubator at 37 °C with 5% CO2. The”, “wells.” for “wells. The culture plate was incubated overnight in an incubator at 37 °C, 5% CO2, and 100% RH.”, “(Promega-G7573). […] The IC50 was calculated using the following equation: [formula] • X: log(concentration) • Y: response value, negatively correlated with X • HillSlope: slope factor • Note: […]” for “(Promega-G7573).”

MDA-MB-231 = test: as above; assay type: cell-based; settings: 4-7 days; for IC50: Homo sapiens, MDA-MB-231, Triple-negative breast cancer; for Maximum Inhibition Rate: Triple-negative breast cancer
Procedure: as §1, with “The” for “The tumor cell strains were cultured in an incubator at 37 °C with 5% CO2. The”, “wells.” for “wells. The culture plate was incubated overnight in an incubator at 37 °C, 5% CO2, and 100% RH.”, “(Promega-G7573). […] The IC50 was calculated using the following equation: [formula] • X: log(concentration) • Y: response value, negatively correlated with X • HillSlope: slope factor • Note: […]” for “(Promega-G7573).”

T47D = test: as above; assay type: cell-based; settings: HR+/HER2- Breast cancer, 4-7 days; for IC50: Homo sapiens, T47D
Procedure: as §1, with “The” for “The tumor cell strains were cultured in an incubator at 37 °C with 5% CO2. The”, “wells.” for “wells. The culture plate was incubated overnight in an incubator at 37 °C, 5% CO2, and 100% RH.”, “(Promega-G7573). […] The IC50 was calculated using the following equation: [formula] • X: log(concentration) • Y: response value, negatively correlated with X • HillSlope: slope factor • Note: […]” for “(Promega-G7573).”

MDA-MB-468 (Rb-) = test: as above; assay type: cell-based; settings: 4-7 days; for Maximum Inhibition Rate: Breast cancer (primary resistance to Palbociclib); for IC50: Homo sapiens, MDA-MB-468, Breast cancer (primary resistance to Palbociclib)
Procedure: as §1, with “The” for “The tumor cell strains were cultured in an incubator at 37 °C with 5% CO2. The”, “wells.” for “wells. The culture plate was incubated overnight in an incubator at 37 °C, 5% CO2, and 100% RH.”, “(Promega-G7573). […] The IC50 was calculated using the following equation: [formula] • X: log(concentration) • Y: response value, negatively correlated with X • HillSlope: slope factor • Note: […]” for “(Promega-G7573).”

[4] = Solubility comparison in water, SGF, FaSSIF and FeSSIF (HPLC of filtrates, XRPD of filter cakes); settings: time not stated

Compound: CC(=O)c1c(C)c2cnc(Nc3ccc4c(c3)OC[C@@H]3CN(C5CCN(C)CC5)CCN43)nc2n(C2CCCC2)c1=O [crystalline form B of the hydrochloride salt of compound A]
- Purity (Peak area%) 0 day [1]: 99.31 Peak area%
- XRPD pattern / crystalline form after the DVS test ([2]; before vs after DVS test): did not change
- XRPD-7days ([3]; 40°C /75%RH): Unchanged
- Purity (Peak area%) 7 days ([3]; 40°C /75%RH, HPLC): 99.33 Peak area%
- chemical stability ([3]; 60 °C, 92.5% RH and 40 °C/75% RH for 7 days, HPLC): chemically stable
- XRPD-7days ([3]; 60°C): Unchanged
- Purity (Peak area%) 7 days ([3]; 60°C, HPLC): 99.38 Peak area%
- XRPD-7days ([3]; 92.5%RH): Unchanged
- Purity (Peak area%) 7 days ([3]; 92.5%RH, HPLC): 99.36 Peak area%
- crystalline form (XRPD) after 7 days ([3]; under the three conditions 60 °C, 92.5% RH and 40 °C/75% RH): remained unchanged

Compound: CC(=O)c1c(C)c2cnc(Nc3ccc4c(c3)OC[C@@H]3CN(C5CCN(C)CC5)CCN43)nc2n(C2CCCC2)c1=O [Compound A]
- Maximum Inhibition Rate (MV-4-11; Hematological tumor): 99.897%
- IC50 (MV-4-11; Homo sapiens, MV4-11, Hematological tumor): 102 nM
- IC50 (Huh-7; Homo sapiens, Huh-7, Liver cancer): 107 nM
- Maximum Inhibition Rate (Huh-7; Liver cancer): 99.447%
- IC50 (NCI-H211; Homo sapiens, NCI-H211, Small cell lung cancer): 201 nM
- Maximum Inhibition Rate (NCI-H211; Small cell lung cancer): 99.883%
- Maximum Inhibition Rate (MOLM-13; Hematological tumor): 99.993%
- IC50 (MOLM-13; Homo sapiens, MOLM-13, Hematological tumor): 370 nM
- Maximum Inhibition Rate (HCT 116; Colorectal cancer): 99.244%
- IC50 (HCT 116; Homo sapiens, HCT-116, Colorectal cancer): 134 nM
- IC50 (A2780; Homo sapiens, A2780, Ovarian cancer): 438 nM
- Maximum Inhibition Rate (A2780; Ovarian cancer): 98.887%
- IC50 (SK-MEL-5; Homo sapiens, SK-MEL-5, Melanoma): 9500 nM
- Maximum Inhibition Rate (SK-MEL-5; Melanoma): 99.213%
- Maximum Inhibition Rate (COLO 205; Colorectal cancer): 99.093%
- IC50 (COLO 205; Homo sapiens, COLO 205, Colorectal cancer): 734 nM
- IC50 (JHH-7; Homo sapiens, JHH7, Liver cancer): 107 nM
- Maximum Inhibition Rate (JHH-7; Liver cancer): 99.394%
- Maximum Inhibition Rate (HT-29; Colorectal cancer): 95.622%
- IC50 (HT-29; Homo sapiens, HT-29, Colorectal cancer): 113 nM
- IC50 (Hep3B (Rb-); Homo sapiens, Hep3B): 3330 nM
- Maximum Inhibition Rate (Hep3B (Rb-)): 99.055%
- Maximum Inhibition Rate (Hep3B (Rb-); listed as compound A): exceeding 99%
- Maximum Inhibition Rate (MCF-7): 99.937%
- IC50 (MCF-7): 76 nM
- Maximum Inhibition Rate (MDA-MB-453): 102.600%
- Maximum Inhibition Rate (MDA-MB-453; listed as compound A): ~100%
- IC50 (MDA-MB-453): 384 nM
- IC50 (xMCF-7/Palbo-R): 3090 nM
- Maximum Inhibition Rate (xMCF-7/Palbo-R): 99.677%
- IC50 (HCC1187): 1110 nM
- Maximum Inhibition Rate (HCC1187): 99.777%
- IC50 (MDA-MB-231): 3450 nM
- Maximum Inhibition Rate (MDA-MB-231): 99.567%
- Maximum Inhibition Rate (T47D): 99.910%
- IC50 (T47D): 1500 nM
- Maximum Inhibition Rate (MDA-MB-468 (Rb-)): 99.693%
- Maximum Inhibition Rate (MDA-MB-468 (Rb-); listed as compound A): exceeding 99%
- IC50 (MDA-MB-468 (Rb-)): 440 nM
- solubility in SGF ([4]; SGF, listed as free base): greater than 5 mg/mL
- solubility in water ([4]; water): approximately 0.003 mg/mL

Compound: CC(=O)c1c(C)c2cnc(Nc3ccc(N4CCNCC4)cn3)nc2n(C2CCCC2)c1=O [Palbociclib, reference compound]
- Maximum Inhibition Rate (MCF-7): 96.983%
- IC50 (MCF-7): 52 nM
- IC50 (MDA-MB-453): 188 nM
- IC50 (xMCF-7/Palbo-R): 7700 nM
- Maximum Inhibition Rate (xMCF-7/Palbo-R): 98.367%
- IC50 (HCC1187): > 5000 nM
- Maximum Inhibition Rate (HCC1187): 11.183%
- IC50 (MDA-MB-231): > 5000 nM
- Maximum Inhibition Rate (MDA-MB-231): 41.943%
- Maximum Inhibition Rate (T47D): 48.850%
- IC50 (T47D): > 5000 nM
- Maximum Inhibition Rate (MDA-MB-468 (Rb-)): 34% and 34.044%
- IC50 (MDA-MB-468 (Rb-)): > 5000 nM

Compound: CC(=O)c1c(C)c2cnc(Nc3ccc4c(c3)OC[C@@H]3CN(C5CCN(C)CC5)CCN43)nc2n(C2CCCC2)c1=O [crystalline form C of the benzenesulfonate of compound A]
- Purity (Peak area%) 0 day [1]: 98.79 Peak area%
- moisture absorption ([2]; DVS, at 80% RH): 1.2%
- XRPD-7days ([3]; 40°C /75%RH): remained unchanged
- Purity (Peak area%) 7 days ([3]; 40°C /75%RH, HPLC): 98.79 Peak area%
- XRPD-7days ([3]; 60°C): remained unchanged
- Purity (Peak area%) 7 days ([3]; 60°C, HPLC): 98.89 Peak area%
- XRPD-7days ([3]; 92.5%RH): changed into a new crystalline form
- Purity (Peak area%) 7 days ([3]; 92.5%RH, HPLC): 98.84 Peak area%
